Measured values as given in patent US12486269B2 (Aconcagua Bio, Inc., priority 2024, dated 2025).

How the values were obtained:
[1] = target: T1, human calcitonin receptor (CTR) (Homo sapiens, UniProt P30988); experiment: Calcitonin Receptor (CTR) cAMP Assay; type: cell-based; conditions: COS7-human CTR Clone #2 stable cell line, cAMP dynamic 2 kit, 30 min; read-out: Calcitonin Receptor cAMP Stimulation Activity: EC50
T1 construct: expressed in transfected cells; host or cells: COS-7 (COS7-human CTR Clone #2)
T1 sequence (P30988 25-474): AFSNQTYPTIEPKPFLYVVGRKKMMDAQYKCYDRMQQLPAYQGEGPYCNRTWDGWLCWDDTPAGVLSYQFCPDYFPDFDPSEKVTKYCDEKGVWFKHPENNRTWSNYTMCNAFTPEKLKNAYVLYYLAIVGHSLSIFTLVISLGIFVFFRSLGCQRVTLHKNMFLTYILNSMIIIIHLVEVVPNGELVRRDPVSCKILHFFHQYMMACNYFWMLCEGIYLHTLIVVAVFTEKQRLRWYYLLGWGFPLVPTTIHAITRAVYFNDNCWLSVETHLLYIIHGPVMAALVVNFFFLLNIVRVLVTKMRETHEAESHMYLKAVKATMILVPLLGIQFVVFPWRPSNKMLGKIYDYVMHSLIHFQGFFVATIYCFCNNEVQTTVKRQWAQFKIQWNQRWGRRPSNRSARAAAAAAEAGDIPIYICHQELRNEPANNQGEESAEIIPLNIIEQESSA
In short: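 COS-7 cells stably expressing human CTR (2000 cells/well) were incubated 30 min at 37 °C with 4-fold serially diluted compound in HBSS/20 mM HEPES/0.5 mM IBMX/0.1% casein. cAMP was detected by HTRF (665/615 nm) after 1 h at RT. % activity was normalised to vehicle and positive controls.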

[2] = target: T2, COS-7/AMY3 (human calcitonin receptor (CTR) and RAMP3) (Homo sapiens, UniProt O60896+P30988); experiment: Amylin Receptor cAMP Assay II; type: cell-based; conditions: values marked **: Amylin Receptor cAMP Assay II; COS-7/AMY3 cells, cAMP dynamic 2 kit, 30 min; read-out: Amylin Receptor cAMP Stimulation Activity: EC50
T2 construct: expressed in transfected cells; host or cells: COS-7
In short: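 COS-7 cells stably co-expressing human CTR and RAMP3 (AMY3), 2000 cells/well in HBSS with 20 mM HEPES, 0.5 mM IBMX, 0.1% casein, stimulated with compound for 30 min at 37 °C. cAMP measured by HTRF (665/615 nm), activity normalized between vehicle and maximal control.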

T2 sequence (O60896 24-148, one chain of several): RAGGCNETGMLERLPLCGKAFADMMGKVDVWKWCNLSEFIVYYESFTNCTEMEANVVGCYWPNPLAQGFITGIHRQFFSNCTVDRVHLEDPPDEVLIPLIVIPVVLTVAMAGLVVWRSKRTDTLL

Row | EC50 [1] [nM] | EC50 [2] [nM] | Compound
1 | 0.0436 | 1.59 | COc1c(F)cc(F)c2c1CC[C@H]2Nc1nccc2cc(-c3c4c(nc(CCc5ccc(F)cc5)c3-c3n[nH]c(=O)o3)C35CC(CN3C4=O)C5)sc12 [Compound 288, (R)-5-(4-(7-((5,7-difluoro-4-methoxy-2,3-dihydro-1H-inden-1-yl)amino)thieno[2,3-c]pyridin-2-yl)-2-(4-fluorophenethyl)-5-oxo-8,9-dihydro-5H,7H-8,9a-methanopyrido[2,3-a]pyrrolizin-3-yl)-1,3,4-oxadiazol-2(3H)-one]
2 | 0.0645 | 0.54 | COc1c(Cl)cc2c(c1F)CC[C@H]2Nc1nccc2cc(-c3c4c(nc(CCc5ccc(F)cc5)c3-c3n[nH]c(=O)o3)C35CC(CN3C4=O)C5)sc12 [Compound 289, (R)-5-(4-(7-((6-chloro-4-fluoro-5-methoxy-2,3-dihydro-1H-inden-1-yl)amino)thieno[2,3-c]pyridin-2-yl)-2-(4-fluorophenethyl)-5-oxo-5,7,8,9-tetrahydro-8,9a-methanopyrido[2,3-a]pyrrolizin-3-yl)-1,3,4-oxadiazol-2(3H)-one]
3 | 17.6 | 1640 | COc1c(F)ccc2c1CC(F)(F)[C@@H]2Nc1nccc2cc(-c3c4c(nc(CCc5ccc(F)cc5)c3-c3n[nH]c(=O)o3)[C@@H]3CCCN3C4=O)sc12 [Compound 290, 5-((S)-2-(4-fluorophenethyl)-5-oxo-4-(7-(((R)-2,2,5-trifluoro-4-methoxy-2,3-dihydro-1H-inden-1-yl)amino)thieno[2,3-c]pyridin-2-yl)-7,8,9,9a-tetrahydro-5H-pyrido[2,3-a]pyrrolizin-3-yl)-1,3,4-oxadiazol-2(3H)-one]
4 | 0.0138 | 0.363 | COc1c(F)ccc2c1C[C@@H](F)[C@H]2Nc1nccc2cc(-c3c4c(nc(CCc5ccc(F)cc5)c3-c3n[nH]c(=O)o3)C35CC(CN3C4=O)C5)sc12 [Compound 291, 5-(4-(7-(((1S,2R)-2,5-difluoro-4-methoxy-2,3-dihydro-1H-inden-1-yl)amino)thieno[2,3-c]pyridin-2-yl)-2-(4-fluorophenethyl)-5-oxo-5,7,8,9-tetrahydro-8,9a-methanopyrido[2,3-a]pyrrolizin-3-yl)-1,3,4-oxadiazol-2(3H)-one]
5 | 7.36 | 298 | COc1c(F)ccc2c1CC(F)(F)[C@@H]2Nc1nccc2cc(-c3c4c(nc(CCc5ccc(F)cc5)c3-c3n[nH]c(=O)o3)C35CC(CN3C4=O)C5)sc12 [Compound 292, (R)-5-(2-(4-fluorophenethyl)-5-oxo-4-(7-((2,2,5-trifluoro-4-methoxy-2,3-dihydro-1H-inden-1-yl)amino)thieno[2,3-c]pyridin-2-yl)-5,7,8,9-tetrahydro-8,9a-methanopyrido[2,3-a]pyrrolizin-3-yl)-1,3,4-oxadiazol-2(3H)-one]
6 | 0.0485 | 2.68 | O=C1c2c(nc(CCc3ccc(F)cc3)c(-c3n[nH]c(=O)o3)c2-c2cc3ccnc(N[C@@H]4CCOc5c(F)cc(F)cc54)c3s2)C23CC(CN12)C3 [Compound 293, (R)-5-(4-(7-((6,8-difluorochroman-4-yl)amino)thieno[2,3-c]pyridin-2-yl)-2-(4-fluorophenethyl)-5-oxo-8,9-dihydro-5H,7H-8,9a-methanopyrido[2,3-a]pyrrolizin-3-yl)-1,3,4-oxadiazol-2(3H)-one]
7 | 0.0435 | 0.562 | COc1cc(F)cc2c1CC[C@H]2Nc1nccc2cc(-c3c4c(nc(CCc5ccc(F)cc5)c3-c3n[nH]c(=O)o3)C35CC(CN3C4=O)C5)sc12 [Compound 294, (R)-5-(4-(7-((6-fluoro-4-methoxy-2,3-dihydro-1H-inden-1-yl)amino)thieno[2,3-c]pyridin-2-yl)-2-(4-fluorophenethyl)-5-oxo-5,7,8,9-tetrahydro-8,9a-methanopyrido[2,3-a]pyrrolizin-3-yl)-1,3,4-oxadiazol-2(3H)-one]
8 | 0.0289 | 1.21 | Cc1cc2cc(-c3c4c(nc(CCc5ccc(F)cc5)c3-c3n[nH]c(=O)o3)C35CC(CN3C4=O)C5)sc2c(N[C@@H]2CCOc3c(F)cc(F)cc32)n1 [Compound 295, (R)-5-(4-(7-((6,8-difluorochroman-4-yl)amino)-5-methylthieno[2,3-c]pyridin-2-yl)-2-(4-fluorophenethyl)-5-oxo-8,9-dihydro-5H,7H-8,9a-methanopyrido[2,3-a]pyrrolizin-3-yl)-1,3,4-oxadiazol-2(3H)-one]
9 | 0.0164 | 0.272 | COc1c(F)ccc2c1CC(F)(F)[C@H]2Nc1nc(C)cc2cc(-c3c4c(nc(CCc5ccc(F)cc5)c3-c3n[nH]c(=O)o3)C35CC(CN3C4=O)C5)sc12 [Compound 296, (S)-5-(2-(4-fluorophenethyl)-4-(5-methyl-7-((2,2,5-trifluoro-4-methoxy-2,3-dihydro-1H-inden-1-yl)amino)thieno[2,3-c]pyridin-2-yl)-5-oxo-8,9-dihydro-5H,7H-8,9a-methanopyrido[2,3-a]pyrrolizin-3-yl)-1,3,4-oxadiazol-2(3H)-one]
10 | 0.0413 | 1.07 | O=C1c2c(nc(CCc3ccc(F)cc3)c(-c3n[nH]c(=O)o3)c2-c2cc3cc(C(F)F)nc(N[C@@H]4CCOc5c(F)cc(F)cc54)c3s2)C23CC(CN12)C3 [Compound 297, (R)-5-(4-(7-((6,8-difluorochroman-4-yl)amino)-5-(difluoromethyl)thieno[2,3-c]pyridin-2-yl)-2-(4-fluorophenethyl)-5-oxo-8,9-dihydro-5H,7H-8,9a-methanopyrido[2,3-a]pyrrolizin-3-yl)-1,3,4-oxadiazol-2(3H)-one]
11 | 0.0212 | 0.747 | COc1cc(F)cc2c1CC[C@H]2Nc1nc(C)cc2cc(-c3c4c(nc(CCc5ccc(F)cc5)c3-c3n[nH]c(=O)o3)C35CC(CN3C4=O)C5)sc12 [Compound 298, (R)-5-(4-(7-((6-fluoro-4-methoxy-2,3-dihydro-1H-inden-1-yl)amino)-5-methylthieno[2,3-c]pyridin-2-yl)-2-(4-fluorophenethyl)-5-oxo-8,9-dihydro-5H,7H-8,9a-methanopyrido[2,3-a]pyrrolizin-3-yl)-1,3,4-oxadiazol-2(3H)-one]
12 | 0.0172 | 0.363 | COc1c(F)c(F)cc2c1CC[C@H]2Nc1nc(C)cc2cc(-c3c4c(nc(CCc5ccc(F)cc5)c3-c3n[nH]c(=O)o3)[C@@H]3CCCN3C4=O)sc12 [Compound 299, 5-((S)-4-(7-(((R)-5,6-difluoro-4-methoxy-2,3-dihydro-1H-inden-1-yl)amino)-5-methylthieno[2,3-c]pyridin-2-yl)-2-(4-fluorophenethyl)-5-oxo-7,8,9,9a-tetrahydro-5H-pyrido[2,3-a]pyrrolizin-3-yl)-1,3,4-oxadiazol-2(3H)-one]
13 | 0.016 | 0.362 | COc1c(F)ccc2c1CC[C@H]2Nc1nc(C)cc2cc(-c3c4c(nc(CCc5cccc(F)c5)c3-c3n[nH]c(=O)o3)C35CC(CN3C4=O)C5)sc12 [Compound 300, (R)-5-(4-(7-((5-fluoro-4-methoxy-2,3-dihydro-1H-inden-1-yl)amino)-5-methylthieno[2,3-c]pyridin-2-yl)-2-(3-fluorophenethyl)-5-oxo-8,9-dihydro-5H,7H-8,9a-methanopyrido[2,3-a]pyrrolizin-3-yl)-1,3,4-oxadiazol-2(3H)-one]
14 | 0.0551 | 0.857 | COc1c(F)ccc2c1C[C@@H](F)[C@H]2Nc1nc(C)cc2cc(-c3c4c(nc(CCc5ccc(F)cc5)c3-c3n[nH]c(=O)o3)[C@@H]3CCCN3C4=O)sc12 [Compound 301, 5-((S)-4-(7-(((1S,2R)-2,5-difluoro-4-methoxy-2,3-dihydro-1H-inden-1-yl)amino)-5-methylthieno[2,3-c]pyridin-2-yl)-2-(4-fluorophenethyl)-5-oxo-7,8,9,9a-tetrahydro-5H-pyrido[2,3-a]pyrrolizin-3-yl)-1,3,4-oxadiazol-2(3H)-one]
15 | 0.134 | 3.97 | COc1c(F)ccc2c1CC[C@H]2Nc1nc(C)cc2cc(-c3c4c(nc(CCc5ccc(F)cc5)c3-c3n[nH]c(=O)o3)C(C3CC3)NC4=O)sc12 (stereo partly drawn) [Compound 302, 5-(7-cyclopropyl-4-(7-(((R)-5-fluoro-4-methoxy-2,3-dihydro-1H-inden-1-yl)amino)-5-methylthieno[2,3-c]pyridin-2-yl)-2-(4-fluorophenethyl)-5-oxo-6,7-dihydro-5H-pyrrolo[3,4-b]pyridin-3-yl)-1,3,4-oxadiazol-2(3H)-one]
16 | 0.0337 | 0.695 | COc1c(F)ccc2c1CC(F)(F)[C@H]2Nc1nc(C)cc2cc(-c3c4c(nc(CCc5ccc(F)cc5)c3-c3n[nH]c(=O)o3)[C@@H]3CCCN3C4=O)sc12 [Compound 303, 5-((S)-2-(4-fluorophenethyl)-4-(5-methyl-7-(((S)-2,2,5-trifluoro-4-methoxy-2,3-dihydro-1H-inden-1-yl)amino)thieno[2,3-c]pyridin-2-yl)-5-oxo-7,8,9,9a-tetrahydro-5H-pyrido[2,3-a]pyrrolizin-3-yl)-1,3,4-oxadiazol-2(3H)-one]
